From publication PMC3603284 (Therapeutic drug monitoring, 2013)

Test: Week 2 plasma trough protease inhibitor concentration
Parameters: species or system human
Conditions: in vivo

SMILES | decrease in the mean trough concentration per C allele (human, 2 weeks) | week 2 trough measures below the assay limit of quantification (200 ng/ml) (human, 2 weeks) | association of SLCO1B1 521T→C with week 2 trough concentration
CC(C)CN(C[C@@H](O)[C@H](Cc1ccccc1)NC(=O)O[C@H]1CCOC1)S(=O)(=O)c1ccc(N)cc1 [amprenavir] | 35% |  | 
CC(C)c1nc(CN(C)C(=O)N[C@H](C(=O)N[C@@H](Cc2ccccc2)C[C@H](O)[C@H](Cc2ccccc2)NC(=O)OCc2cncs2)C(C)C)cs1 [ritonavir] |  | 86% | no significant association
CC(C)(C)NC(=O)[C@@H]1C[C@@H]2CCCC[C@@H]2CN1C[C@@H](O)[C@H](Cc1ccccc1)NC(=O)[C@H](CC(N)=O)NC(=O)c1ccc2ccccc2n1 [saquinavir] |  |  | no significant association
